The values below come from patent publication US11780893B2, “Kv1.3 blockers” (Zealand Pharma A/S, priority 2019, dated 2023).

Bridge positions count the residues as written; N and C are the ends. Square brackets hold non-standard residues; d marks the D form. Peptide text beside a SMILES is read from it. Nle = CCCC[C@H](N)C(=O)O

T1 sequence (P22001 whole entry): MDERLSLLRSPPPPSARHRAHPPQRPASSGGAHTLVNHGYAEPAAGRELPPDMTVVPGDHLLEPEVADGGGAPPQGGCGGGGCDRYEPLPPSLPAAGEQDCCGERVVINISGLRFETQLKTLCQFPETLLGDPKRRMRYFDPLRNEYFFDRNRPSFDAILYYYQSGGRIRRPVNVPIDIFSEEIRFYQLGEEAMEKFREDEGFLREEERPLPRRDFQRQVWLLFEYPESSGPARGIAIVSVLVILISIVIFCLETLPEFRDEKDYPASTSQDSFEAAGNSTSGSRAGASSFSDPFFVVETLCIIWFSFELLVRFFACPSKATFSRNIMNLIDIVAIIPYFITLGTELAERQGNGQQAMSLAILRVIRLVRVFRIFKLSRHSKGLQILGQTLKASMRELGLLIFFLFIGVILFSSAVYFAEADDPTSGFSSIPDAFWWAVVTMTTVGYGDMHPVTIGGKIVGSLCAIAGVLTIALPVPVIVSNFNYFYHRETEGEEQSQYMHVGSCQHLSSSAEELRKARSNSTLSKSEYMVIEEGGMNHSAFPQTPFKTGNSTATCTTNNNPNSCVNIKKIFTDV

This assay concerns the target T1, human Kv1.3 voltage-gated K+ channel (Homo sapiens, UniProt P22001).
T1 construct: host or cells: CHO-DUKX
Put plainly: cell-based. Particulars: inhibition of thallium flux, CHO-DUKX cells with human Kv1.3; read-out: IC50.
What is called IC50 is the point on the concentration scale where inhibition reaches its midpoint. `CCCC[C@H](NC(=O)[C@@H]1CCCN1)C(=O)N[C@@H](CCC(=O)O)C(=O)N[C@@H](CCCC)C(=O)N[C@@H](CCCNC(=N)N)C(=O)N[C@H]1CSSC[C@@H]2NC(=O)[C@H](CCCCN)NC(=O)CNC(=O)[C@H](Cc3ccccc3)NC(=O)[C@H]([C@@H](C)CC)NC(=O)[C@H](CO)NC(=O)CNC(=O)[C@H]([C@@H](C)CC)NC(=O)[C@H](C)NC(=O)[C@H](C)NC(=O)[C@H](CC(C)C)NC(=O)[C@@H]3CSSC[C@@H](C(=O)N[C@@H](Cc4ccc(O)cc4)C(=O)N4CCC[C@H]4C(=O)N[C@@H](CCCNC(=N)N)C(=O)O)NC(=O)[C@H](CCCCN)NC(=O)[C@H](CSSC[C@H](NC(=O)[C@H](CCC(=O)O)NC(=O)[C@H](C(C)C)NC(=O)[C@H](CO)NC(=O)[C@H](C)NC(=O)[C@H](CCC(=O)O)NC1=O)C(=O)N[C@@H](CCCCN)C(=O)N[C@@H](CCC(N)=O)C(=O)N[C@@H](CCCCN)C(=O)N3)NC(=O)[C@H](CCCCN)NC(=O)[C@H](CCCCN)NC(=O)[C@H](CC(N)=O)NC(=O)[C@H](CCCC)NC2=O` [Compound 142] (H-P[Nle]E[Nle]RCEASVECKQKCLAAIGSIFGKC[Nle]NKKCKCYPR-OH; disulfide 6-27, 12-32, 16-34): the IC50 stood at 1.5 nM. In the case of `CCCC[C@@H]1NC(=O)[C@@H]2CSSC[C@H](NC(C)=O)C(=O)N[C@@H](CO)C(=O)N[C@@H](C)C(=O)N[C@@H](CO)C(=O)N[C@@H](C(C)C)C(=O)N[C@@H](CCC(=O)O)C(=O)N[C@H]3CSSC[C@H](NC(=O)[C@H](CCCCN)NC(=O)[C@H](CCCCN)NC(=O)[C@H](CC(N)=O)NC1=O)C(=O)N[C@@H](CCCCN)C(=O)N[C@H](C(=O)N[C@@H](Cc1ccc(O)cc1)C(=O)N[C@@H](CO)C(N)=O)CSSC[C@H](NC(=O)[C@H](CCCCN)NC(=O)[C@H](CCC(N)=O)NC(=O)[C@H](CCCCN)NC3=O)C(=O)N[C@@H](CC(C)C)C(=O)N[C@@H](CCCCN)C(=O)N[C@@H](C)C(=O)N[C@@H]([C@@H](C)CC)C(=O)NCC(=O)N[C@@H](CO)C(=O)N[C@@H]([C@@H](C)CC)C(=O)N[C@@H](Cc1ccccc1)C(=O)NCC(=O)N[C@@H](CCCCN)C(=O)N2` [Compound 110] (Ac-CSASVECKQKCLKAIGSIFGKC[Nle]NKKCKCYS-NH2; disulfide 1-22, 7-27, 11-29) it was 2.3 nM.

In the case of `CCCC[C@@H]1NC(=O)[C@@H]2CSSC[C@H](NC(C)=O)C(=O)N[C@@H](CO)C(=O)N[C@@H](C)C(=O)N[C@@H](CO)C(=O)N[C@@H](C(C)C)C(=O)N[C@@H](CCC(=O)O)C(=O)N[C@H]3CSSC[C@H](NC(=O)[C@H](CCCCN)NC(=O)[C@H](CCCCN)NC(=O)[C@H](CC(N)=O)NC1=O)C(=O)N[C@@H](CCCCN)C(=O)N[C@H](C(=O)N[C@@H](Cc1ccc(O)cc1)C(=O)NCC(N)=O)CSSC[C@H](NC(=O)[C@H](CCCCN)NC(=O)[C@H](CCC(N)=O)NC(=O)[C@H](CCCCN)NC3=O)C(=O)N[C@@H](CC(C)C)C(=O)N[C@@H](CCCCN)C(=O)N[C@@H](C)C(=O)N[C@@H]([C@@H](C)CC)C(=O)NCC(=O)N[C@@H](CO)C(=O)N[C@@H]([C@@H](C)CC)C(=O)N[C@@H](Cc1ccccc1)C(=O)NCC(=O)N[C@@H](CCCCN)C(=O)N2` [Compound 111] (Ac-CSASVECKQKCLKAIGSIFGKC[Nle]NKKCKCYG-NH2; disulfide 1-22, 7-27, 11-29), the IC50 was found to be 2.1 nM.
